# In patent US20200397894A1, “COMPOSITIONS AND METHODS FOR TREATING CANCER” (University of Virginia Patent Foundation, priority 2016, published 2020):
# Columns and labels:
# DM331 xenografts = experiment: Melanoma flank xenograft in nude mice; type: in vivo; conditions: vs. vehicle; PLX4720 in rodent diet 417 mg/kg
# Method: (§1) All animal experiments were performed after approval of animal protocols by the Animal Care and Use Committee (ACUC) of the University of Virginia. Animals were housed and handled in accordance with the guidelines of the ACUC of the University of Virginia. The effect of pevonedistat on melanoma growth was tested in flank xenograft models. Foxn1^nu (20-25 g body weight, 4-5 weeks old females) athymic nude immune-deficient mice (Harlan Laboratories, now Envigo, Indianapolis, Ind., United States of America) were used in this study. Pevonedistat was dissolved in sterile 10% DMSO containing PBS (stock 1 mM), filtered, and stored in −20° C. until use. DM93, VMM39, SLM2, DM331, or SK-MEL-24 (2×10^6) melanoma cells were implanted in both flanks of immune-deficient mice (n=12 mice per group) and tumor growth was monitored until they grow to an average volume of 150-200 mm^3, and mice were randomized into groups for treatment. Animals were administered 0.2 mL pevonedistat solution (30 or 60 mg/kg body weight as indicated) intraperitoneally on a schedule of two cycles of five-day treatment followed by five treatment-free days, for 3 weeks, or more as indicated. Control animals were treated with an equal volume of sterile vehicle (10% DMSO in PBS). Where indicated, mice received control rodent diet, or rodent diet with 417 mg/kg PLX4720 (Research Diets, Inc. New Brunswick, N.J., United States of America). Tumors were measured with an electronic caliper every other day for 3 weeks post-drug injection. Animal weight was recorded once a week to detect any weight loss due to the toxicity of drug treatment or tumor burden. At the end of the treatment, animals were euthanized and tumors harvested for further processing. The results shown are mean tumor volumes±s.e.m; *p<0.05, **p<0.01, ***p<0.001.
# DM93 melanoma xenografts = experiment: Melanoma flank xenograft in nude mice; type: in vivo
# Method: as §1
# [1] = tested on: DM331 and SK-MEL-24 cells from PLX4720-resistant tumors; experiment: In vitro sensitivity of cells extracted ex vivo from PLX4720-resistant tumors; type: cell-based, human; conditions: DM331 and SK-MEL-24 cells extracted ex vivo
# Method: Proliferation and viability of cultured cells was measured by CELLTITER96® Non-radioactive Cell Proliferation Assay (Promega Corporation; Madison, Wis., United States of America). Briefly, various wild type and mutant BRAF melanoma cells were seeded in 96 well plates and treated with pevonedistat, vemurafenib, or the combination pevonedistat and vemurafenib at various concentrations. Control cells were treated with DMSO. 96 hours following treatment, cells were stained with the dye solution according to the manufacturer's protocol. Absorbance was recorded at 570 nm and growth curves were established. […] Cells were counted every 24 hours using a COUNTESS™ Automated Cell Counter (INVITROGEN™, Carlsbad, Calif., United States of America), and harvested at the indicated times for PI staining and FACS analysis (cell cycle profile) or for immunoblotting.
# The effects of pevonedistat, vemurafenib, and/or silencing of various cell cycle-associated proteins by siRNA on cell cycle distribution and rereplication were assessed by propidium iodide staining and flow cytometry of asynchronous melanoma cultures. […]
# Cal27 cells = experiment: Rereplication by propidium iodide staining and FACS (HNSCC); type: cell-based, human
# Method: The effect of pevonedistat treatment or CDT2, geminin, or EMI1 knockdown on the cell cycle (and induction of DNA rereplication) was assessed by flow cytometry with propidium iodide (PI) staining. […] Cells were collected, washed with PBS, and resuspended in ethanol (75%). Cells were subsequently treated with 20 μg of DNase-free RNase and stained with PI following the manufacturer's protocol. FACSCAN™ (Becton, Dickinson and Company, Franklin Lakes, N.J., United States of America) was used to analyze the samples and G0-G1, S, and G2-M fractions were segmented. Subsequent analysis using FLOWJO® (FLOWJO, LLC, Ashland, Oreg., United States of America) and ModFit (Verity Software House, Topsham, Me., United States of America) software was used to determine apoptotic and re-replicating fractions. Where indicated, Cal27 and FaDu cells were treated with pevonedistat for 48 hours and pulsed with BrdU (10 nM) for 1 hour in the dark prior to harvesting. Cells were washed with PBS and staining solution before fixation and permeabilization steps according to the manufacturer's protocol. Cells were subsequently stained with anti-BrdU antibody solution for 20 minutes at room temperature, washed, and stained with 7-AAD for 30 minutes at 4° C. Cells were resuspended in 1 ml of staining buffer and stored at 4° C. overnight before analysis. Sampled were analyzed on a FACSCAN™ (Becton, Dickinson and Company, Franklin Lakes, N.J., United States of America), and different fractions of BrdU positive cells were determined using FLOWJO® (FLOWJO, LLC, Ashland, Oreg., United States of America) and ModFit (Verity Software House, Topsham, Me., United States of America) software.
compound,measurement,setting,value
"NS(=O)(=O)OCC1CC(n2ccc3c(NC4CCc5ccccc54)ncnc32)CC1O [pevonedistat, ((1S,2S,4R)-4-(4-((1S)-2,3-Dihydro-H-inden-1-ylamino)-7H-pyrrolo(2,3-d)pyrimidin-7-yl)-2-hydroxycyclopentyl)methyl sulphamate]",growth of DM331 xenografts,DM331 xenografts,inhibited
same,growth of sg-control DM93 xenografts,"DM93 melanoma xenografts; 30 mg/kg, p=0.009",significantly inhibited the growth
same,growth of sg-p21-1 DM93 xenografts,"DM93 melanoma xenografts; 30 mg/kg, p=0.092",failed to inhibit the growth
same,growth of sg-SET8-1 DM93 xenografts,"DM93 melanoma xenografts; 30 mg/kg, p=0.66",failed to inhibit the growth
same,tumor regression,DM93 melanoma xenografts; 30 or 60 mg/kg,did not result in tumor regression
same,tumor regrowth after cessation of treatment,"DM93 melanoma xenografts; either drug concentration, up to 10 days following cessation",not detectable
same,tolerability,"DM93 melanoma xenografts; nude mice, 30 or 60 mg/kg, 5 days on/5 days off, two cycles",well tolerated
same,sensitivity in vitro of cells from PLX4720-resistant tumors,[1],sensitive to pevonedistat-induced rereplication and inhibition
same,cells undergoing rereplication,"Cal27 cells; Cal27, 40 nM pevonedistat 48 hours plus 2 Gy at the 24 hour time point",32.9%
same,cells undergoing rereplication,"Cal27 cells; Cal27, 40 nM pevonedistat for 48 hours",16.8%
same,cells exhibiting >4N DNA content,"Cal27 cells; Cal27, 100 nM pevonedistat, PI staining",61%
